Source: patent US10633363B2, “EPAC1 activators as HIV latency reversal agents (LRA)” (The Board of Regents of The University of Texas System, priority 2017, dated 2020)
“Also recorded” adds a separate entry of the source.

How the values were obtained:
[1] = test system: latent HIV in J-lat cells; experiment: Activation of GFP expression (latent HIV reactivation) in J-lat cells; type: cell-based; settings: for GFP expression in J-lat cells: flow cytometry, 10 M (so in the source); for Ability to stimulate GFP expression in J-lat cells compared with ZL0568 (SAR): 10 μM
Description: FIG. 2A. Assessment of compound ZL0568, an exemplary embodiment of the invention, for the ability to stimulate GFP expression in J-lat cells. GFP fluorescence intensity was measured by microplate reader.
FIG. 2C. Dose-dependent activation of GFP expression in J-lat cells by ZL0568 measured by flow cytometry.
Dose-dependent activation of GFP expression by ZL0568 in J-lat cells was confirmed by flow cytometric analysis with an EC50 value of 8 μM (in DMSO) (FIG. 2C-D). […] See e.g., FIG. 8A-E.
Specificity and structure-activity relationship (SAR) for ZL0568 was determined by synthesizing and testing four analogues (ZL0696, ZL0697, ZL0699 and ZL06100; 10 μM).

[2] = test system: EPAC (EPAC1) in J-lat cells; experiment: 007-AM-stimulated GFP expression in J-lat cells after CRISPR/Cas9 knock out of EPAC; type: cell-based
Excerpt: FIG. 3F. Functional involvement of EPAC in 007-AM stimulated HIV reactivation in J-lat cells.

latent HIV in NNTC PBMC [3] = experiment: Activation of latent HIV gene expression (3'LTR PCR) in PBMC of ART-suppressed, aviremic HIV-infected subjects (NNTC); type: cell-based; settings: for HIV gene expression, PCR quantification of HIV 3'LTR vs NC: fresh and frozen PBMC of one NNTC subject, 48 hours, ZL0568 10 M (so in the source)
Description: FIG. 6A. Relative HIV gene expression in one representative PBMC following different treatments. Fresh and cryopreserved PBMC of the same donor were compared.
FIG. 6C. Relative HIV gene expression in multiple BMCs (n=8) after treatments were summarized.
The ability of compound ZL0568 to activate latent HIV in PBMC of ART-suppressed, aviremic HIV-infected subjects was tested. PBMC samples were obtained from the well-established HIV infection cohort from the National NeuroAIDS Tissue Consortium (NNTC) with (66, 67). First, feasibility of using NNTC's cryopreserved PBMC in the experiments was explored by comparing the results from fresh and frozen PBMC of the same subject. […] Thus, fresh and cryopreserved PBMC from a representative NNTC subject (ID: 8400337177) were stimulated with compound ZL0568 (10 M) as compared to stimulation with mock (NC) or positive controls (JQ1, Prostratin and PMA; concentrations of positive controls were used as previously reported (21, 25)).
(§1) HIV release in the supernatants of PBMC at 72 hours after treatments using the 1G5 luciferase reporter assay (68, 69) was measured and very similar results were found (FIG. 6B). We noted that although the levels of HIV activation in frozen PBMC were generally lower than those in fresh PBMC, the differences among different treatments were consistently detected (FIG. 6A-B), supporting the feasibility of using NNTC's cryopreserved PBMCs in our system.
(§2) Compound ZL0568 was further tested in multiple NNTC's donor PBMCs (n=8) for HIV gene activation (FIG. 6C) as well as viral production (FIG. 6D).

human PBMC = experiment: Cellular toxicity on human PBMC (% viable cells); type: cell-based; settings: 40 μM
Description: FIG. 8B. Cellular toxicity of ZL0568 on human PBMC. Toxicity was measured as % viable cells at Day 1, 2 and 3 after stimulation at various concentrations.
(§3) Cellular toxicity profile of ZL0568 and its effects on human T cells was evaluated. […] This possibility was precluded since apoptosis was recently shown to be associated with HIV reactivation (68).

latent HIV in NNTC PBMC [4] = experiment: HIV release in supernatants of treated PBMC, 1G5 luciferase reporter assay; type: cell-based; settings: multiple NNTC donor PBMCs (n=8), p<0.01
Description: FIG. 6B. Relative viral release in one representative PBMC following different treatments. Fresh and cryopreserved PBMC of the same donor were compared.
FIG. 6D. HIV release in supernatants of treated PBMC was measured by 1G5 reporter luciferase assay and compared between ZL0568 and NC.
as §1, §2

T cells [5] = experiment: T-cell activation marker expression (CD25, CD38, CD69, HLA-DR) by flow cytometry; type: cell-based, human; settings: 10 μM
Description: FIG. 8D. T-cell activation by ZL0568. Activation marker expression (CD25, CD38, CD69, HLA-DR) on T-cells was measured flow cytometry and compared between ZL0568 (10 uM) and NC.
as §3

HIV in RV21 PBMC = experiment: Activation of HIV gene expression in PBMC of ART-naive, viremic HIV-infected individuals (RV21); type: cell-based
Description: FIG. 5A Activation of HIV gene expression (3′ LTR) in a representative RV21 PBMC on Day 1, 2 and 5 after stimulation. The data are shown as fold change to NC.
A significant limitation for some existing LRAs (e.g. HDACi & BETi) is related to their limited efficacy to activate latent HIV in primary cells (16, 17, 19-21). Whether or not our compound ZL0568 can stimulate HIV gene expression in human PBMC from ART-naïve, viremic HIV-infected individuals was assessed using cells from the RV21, an ART-naïve, HIV infection cohort at the Military HIV Research Program (MHRP). See e.g., Liu F, et al. Sequential Dysfunction and Progressive Depletion of Candida albicans-Specific CD4 T Cell Response in HIV-1 Infection. PLoS Pathog 12(6):e1005663 (2016). A widely-used method to detect HIV transcription in cells from infected individuals involves measurement of RNAs containing HIV gag sequences. […] See e.g., Bullen C K, Laird G M, Durand C M, Siliciano J D, & Siliciano R F, New ex vivo approaches distinguish effective and ineffective single agents for reversing HIV-1 latency in vivo. Nat Med 20(4):425-429 (2014).
Therefore, in addition to Gag, a new PCR assay, established by the Siliciano group, specific for intracellular HIV mRNA using a primer/probe set that detects the 3′-sequence common to all correctly terminated HIV RNAs was employed. […]

[6] = Cellular toxicity on J-lat cells (% viable cells); type: cell-based; settings: stated for J-lat and human PBMC together; cell type not specified; read-out: cytotoxicity CC50
Description: (§4) FIG. 8A. Cellular toxicity of ZL0568 on J-lat cells. Toxicity was measured as % viable cells at Day 1, 2 and 3 after stimulation at various concentrations.
as §3

J-lat cells = experiment: Cellular toxicity on J-lat cells (% viable cells); type: cell-based; settings: J-lat cells; 40 μM
Description: as §4, §3

T cells [7] = experiment: Expression of cytokines in T cells by intracellular cytokine staining; type: cell-based, human; settings: 10 uM, 24 hours
Description: FIG. 8E. Expression of cytokines (% IFN-r, IL-2, MIP-1b or IL-17) in T cells between ZL0568 treatment (10 uM) and NC (24 hours), measured by intracellular cytokine staining.
as §3

T cells [8] = experiment: Caspase-3 and Caspase-1 expression in T cells; type: cell-based, human; settings: 24 hours, vs NC
Description: FIG. 8C. Caspase-3 and Caspase-1 expression in T cells with ZL0568 stimulation as compared to NC (24 hours).
as §3

[9] = test system: latent HIV in human monocytic U1 cells; experiment: Activation of latent HIV in U1 cells, intracellular HIV p24 staining by flow cytometry; type: cell-based; settings: various concentrations, 48 hours
Description: FIG. 4. Activation of latent HIV by compound ZL0568 in U1 cells. U1 cells were stimulated with various concentrations of compound ZL0568 as indicated or mock-stimulated (NC) for 48 hours. Reactivation of latent HIV were examined based on intracellular HIV p24 staining (p24%) by flow cytometry.
Whether or not compound ZL0568, an exemplary embodiment of the invention, can activate latent HIV in human monocytic U1 cells was evaluated. In particular, U1 cells were stimulated with various concentrations of ZL0568 or mock DMSO (NC). Reactivation of latent HIV was measured based on intracellular HIV p24 staining by flow cytometry.

## CO[C@@H]1[C@@H]2OP(=O)(OCOC(C)=O)OC[C@H]2O[C@H]1n1c(Sc2ccc(Cl)cc2)nc2c(N)ncnc21 (stereo partly shown) [007-AM, reference compound]
[1]
  GFP expression / HIV reactivation in J-lat cells (in words): significant HIV reactivation
  GFP expression in J-lat cells: 12.8%
[2]
  007-AM-stimulated GFP expression after ablation of EPAC: marked decrease

## CC(C)(C)c1cc(C(=O)/C(C#N)=N/Nc2cccc(Cl)c2)no1 [ESI-09, reference compound]
[1]
  GFP expression / HIV reactivation in J-lat cells (in words): no HIV activation effect; also recorded: no GFP-activating effect

## Cc1sc2c(c1C)C(c1ccc(Cl)cc1)=N[C@@H](CC(=O)OC(C)(C)C)c1nnc(C)n1-2 [JQ1, reference compound]
Latent HIV in NNTC PBMC [3]
  HIV gene expression, PCR quantification of HIV 3'LTR vs NC: failed to do so
[1]
  GFP expression in J-lat cells: 8.97%

## CCCCCCCCCCCCCC(=O)O[C@@H]1[C@@H](C)[C@@]2(O)[C@@H](C=C(CO)C[C@]3(O)C(=O)C(C)=C[C@@H]23)[C@@H]2C(C)(C)[C@]12OC(C)=O [PMA]
Latent HIV in NNTC PBMC [3]
  HIV gene expression, PCR quantification of HIV 3'LTR vs NC: markedly activated HIV gene expression

## CC(=O)O[C@@]12C[C@@H](C)[C@@]3(O)[C@@H](C=C(CO)C[C@]4(O)C(=O)C(C)=C[C@@H]34)[C@@H]1C2(C)C [Prostratin]
Latent HIV in NNTC PBMC [3]
  HIV gene expression, PCR quantification of HIV 3'LTR vs NC: markedly activated HIV gene expression

## Cn1cc(C(=O)/C(C#N)=N/Nc2ccc(Cl)c(C(F)(F)F)c2)c2ccccc21 [ZL0568, (E)-N-(4-chloro-3-(trifluoromethyl)phenyl)-2-(1-methyl-1H-indol-3-yl)-2-oxoacetohydrazonoyl Cyanide]
Human PBMC
  Cellular toxicity, % viable cells: limited cellular toxicity
Latent HIV in NNTC PBMC [3]
  HIV gene expression, PCR quantification of HIV 3'LTR vs NC: significant HIV gene expression
Latent HIV in NNTC PBMC [3]; multiple NNTC donor PBMCs (n=8), p<0.01
  HIV gene activation vs NC: enhanced HIV activation
Latent HIV in NNTC PBMC [4]
  Viral production vs NC: enhanced HIV activation
T cells [5]
  CD69 and HLA-DR expression: no significant increase
T cells [5]; p<0.001
  T-cell activation, expression of CD25 and CD38: modest level of T-cell activation
[1]; Human immunodeficiency virus 1, flow cytometric analysis, in DMSO, read-out: EC50, dose-dependent activation of GFP expression in J-lat cells
  EC50: 8 µM
[1]
  GFP expression / HIV reactivation in J-lat cells (in words): significant GFP expression
  GFP expression in J-lat cells: 21.7%
HIV in RV21 PBMC; ART-naive RV21 PBMCs, Day 2, p<0.005
  HIV gene expression (3'LTR and Gag together) vs NC: could significantly activate HIV gene expression
HIV in RV21 PBMC; representative RV21 PBMC, 10 M (so in the source), Day 1, 2 and 5
  HIV 3'-LTR gene expression, time course: induced HIV 3′-TLR expression on Day 2 after stimulation, which became less significant on Day 5
[6]
  CC50: 75 µM
J-lat cells
  Cellular toxicity, % viable cells: limited cellular toxicity
T cells [7]
  Expression of inflammatory cytokines in T cells (IFN-γ, IL-2, MIP-1b, IL-17): did not induce expression of inflammatory cytokines
T cells [8]
  Induction of cell death signals (caspase-3/caspase-1): no preferential induction of cell death signals
[9]
  HIV reactivation in U1 cells based on p24 expression: could also stimulate HIV reactivation in U1 cells in a dose-dependent manner

## Cn1cc(C(=O)/C(C#N)=N/Nc2ccccc2Cl)c2ccccc21 [ZL0696, (E)-N-(2-Chlorophenyl)-2-(1-methyl-1H-indol-3-yl)-2-oxoacetohydrazonoyl Cyanide]
[1]
  Ability to stimulate GFP expression in J-lat cells compared with ZL0568 (SAR): substantially abrogated the ability to stimulate GFP expression

## Cn1cc(C(=O)/C(C#N)=N/Nc2cccc(Cl)c2)c2ccccc21 [ZL0697, (E)-N-(3-Chlorophenyl)-2-(1-methyl-1H-indol-3-yl)-2-oxoacetohydrazonoyl Cyanide]
[1]
  Ability to stimulate GFP expression in J-lat cells compared with ZL0568 (SAR): substantially abrogated the ability to stimulate GFP expression

## Cn1cc(C(=O)/C(C#N)=N/Nc2cc(Cl)cc(Cl)c2)c2ccccc21 [ZL0699, (E)-N-(3,5-Dichlorophenyl)-2-(1-methyl-1H-indol-3-yl)-2-oxoacetohydrazonoyl Cyanide]
[1]
  Ability to stimulate GFP expression in J-lat cells compared with ZL0568 (SAR): substantially abrogated the ability to stimulate GFP expression

## Cn1cc(C(=O)/C(C#N)=N/Nc2ccc3c(c2)CCC(=O)N3)c2ccccc21 [ZL06100, (E)-2-(1-Methyl-1H-indol-3-yl)-2-oxo-N-(2-oxo-1,2,3,4-tetrahydroquinolin-6-yl)acetohydrazonoyl Cyanide]
[1]
  Ability to stimulate GFP expression in J-lat cells compared with ZL0568 (SAR): still maintained some potency
